The source of these data is patent US20090186907A1, “Pyrazinones As Cellular Proliferation Inhibitors” (E.I. DuPont De Nemours and Company, priority 2006, published 2009).

The test system of series [1] is rhabdomyosarcoma (RD) cells. Briefly: Assay for inhibition of cell proliferation (MTT), rhabdomyosarcoma cells. As to conditions: for IC50: rhabdomyosarcoma (RD) cells, MTT, 96 h incubation; for RD Ratio (paclitaxel/compound): ratio of paclitaxel IC50 to compound IC50, RD cells. The class given is cell-based, human. Here is the method:
(§1) Human rabdomyosarcoma (RD) and mouse neuroblastoma (N1E115) cell lines were obtained from the American Type Culture Collection (ATCC, Rockville, Md.). The RD cells were grown in Dulbecco's modified eagle medium (DMEM) supplemented with 4 mM glutamine, containing 10% fetal bovine serum (ATCC #30-2020) and supplemented with 1% penicillin and 1% streptomycin. When confluent, the cells were maintained by passage (about once per week) until needed. The N1E115 line was also cultured in DMEM with 4 mM glutamine containing 10% newborn calf serum (Gibco, Grand Island, N.Y.) and likewise maintained.
(§2) The proliferation of rhabdomyosarcoma cells was determined using a cell proliferation assay kit based on the formation of insoluble formazan crystals from 3-(4,5-dimethylthiazol-2-yl)-2,5-diphenyltetrazolium bromide (MTT). The rhabdomyosarcoma cells were cultured to a density of 10^5 cells per mL. The cell culture (100 μL) was dispensed into wells of a 96-well plate to 10^4 cells per well. The plate was incubated at 37° C. for 3 h until the cells firmly attached to the well surfaces.
(§3) A second 96-well round bottom plate was made up containing the test compounds, serially diluted to cover the concentration range of interest using the DMEM medium plus antibiotics. The final concentration of DMSO in which the compounds were initially dissolved was maintained at a constant 0.5% in each well and the volume of the compounds in the plate was 220 μL. Following the 3 h incubation the medium was removed from the plate containing the cells and replaced with 200 μL of the solutions containing the compounds. The cells were incubated for a further 96 h before the assessment of growth inhibition using MTT.
(§4) The cells were left bathing in 100 μL of the saline solution to which was added 100 μL of MTT in saline (12 mM). Incubation was continued for 4 h at 37° C. to produce the blue formazan color which was quantified by optical density measurements at 570 nm. Background correction of all test wells was performed by subtraction of the yellow MTT solution color measured at 570 nm in cell-free wells. The data were normalized to solvent only control wells.

Series [2] relates to neuroblastoma (N1E115) cells. In words: Assay for inhibition of cell proliferation (MTT), neuroblastoma cells. As to conditions: for IC50: neuroblastoma (N1E115) cells, MTT; for N1E115 Ratio (paclitaxel/compound): ratio of paclitaxel IC50 to compound IC50, N1E115 cells. In kind it is cell-based, mouse. Here is the method:
as §1, §2, §3, §4

Each structure is given as a SMILES string.

Usually melting point stands for the temperature, or range, at which the solid turns liquid. With `CC(C)Cn1c(-c2c(F)cccc2F)c(Cl)nc(C#N)c1=O` [Compound 5, 6-Chloro-5-(2,6-difluorophenyl)-3,4-dihydro-4-(2-methylpropyl)-3-oxopyrazinecarbonitrile], the melting point lay within 100 to 102 °C.
By IC50 is commonly meant the concentration that gives 50% inhibition. In turn, `CC(C)Cn1c(-c2ccc(F)cc2Cl)c(Cl)nc(-n2cccn2)c1=O` [Compound 53, 5-Chloro-6-(2-chloro-4-fluorophenyl)-1-(2-methylpropyl)-3-(1H-pyrazol-1-yl)-2(1H)-pyrazinone] yielded a melting point of 137 to 139 °C. Further, the IC50 in series [1] (Homo sapiens) was determined as 230 nM. In addition, in series [1], the “RD Ratio (paclitaxel/compound)” value was 0.07. Moreover, the IC50 in series [2] (Mus musculus, N1E-115) is 700 nM. Further, the “N1E115 Ratio (paclitaxel/compound)” value in series [2] came out at 0.13.
On to `CC(C)Cn1c(-c2c(F)cccc2F)c(Cl)nc(-c2cn(C)cn2)c1=O` [Compound 85, 5-Chloro-6-(2,6-difluorophenyl)-1-(2-methylpropyl)-3-(1-methyl-1H-imidazol-4-yl)-2(1H)-pyrazinone], for which the melting point is 191 to 193 °C.
On the same count and under the same terms, then `Cc1nc(-n2cccn2)c(=O)n(CC(C)C)c1-c1c(F)cccc1F` [Compound 149, 5-Methyl-6-(2,6-difluorophenyl)-1-(2-methylpropyl)-3-(1H-pyrazol-1-yl)-2(1H)-pyrazinone], with 105 to 106 °C.
Consider `CC[C@H](C)Cn1c(-c2c(F)cc(F)cc2F)c(Cl)nc(-n2cccn2)c1=O` [Compound 155, 5-Chloro-1-[(2S)-2-methylbutyl)-3-(1H-pyrazol-1-yl)-6-(2,4,6-trifluorophenyl)-2(1H)-pyrazinone], for which the melting point is 112 to 113 °C. The half-inhibitory concentration (IC50) in series [1] (Homo sapiens) came to 20 nM. Besides, in series [1], the “RD Ratio (paclitaxel/compound)” value is 0.85. The IC50 in series [2] (Mus musculus, N1E-115) was found to be 75 nM. For the same compound, the “N1E115 Ratio (paclitaxel/compound)” value in series [2] is given as 1.17.
For the compound `COc1ccc(Cn2c(-c3c(F)cccc3F)c(Cl)nc(-n3cccn3)c2=O)cc1` [Compound 271, 5-Chloro-6-(2,6-difluorophenyl)-1-[(4-methoxyphenyl)methyl]-3-(1H-pyrazol-1-yl)-2(1H)-pyrazinone], the melting point was in the range of 235 to 236 °C.
In the case of `CC(C)Cn1c(-c2c(F)cccc2F)cnc(-n2cccn2)c1=O` [Compound 342, 6-(2,6-Difluorophenyl)-1-(2-methylpropyl)-3-(1H-pyrazol-1-yl)-2(1H)-pyrazinone], the melting point was in the range of 91 to 92 °C.
Turning to `O=c1c(-n2cccn2)nc(Cl)c(-c2c(F)cc(F)cc2F)n1CC(F)(F)C(F)(F)F` [Compound 468, 5-Chloro-1-(2,2,3,3,3-pentafluoropropyl)-3-(1H-pyrazol-1-yl)-6-(2,4,6-trifluorophenyl)-2(1H)-pyrazinone], the melting point lay within 147 to 149 °C.
The same measure, in the same setting: the same measure for `CCC(C)Cn1c(-c2ccc(F)cc2F)c(C)nc(C#N)c1=N` (stereo not shown) [Compound 471, 5-(2,4-Difluorophenyl)-3,4-dihydro-3-imino-6-methyl-4-(2-methylbutyl)pyrazinecarbonitrile]: 73 to 77 °C.
In the case of `CC[C@H](C)Cn1c(-c2c(F)cc(OCCCN(C)C)cc2F)c(Cl)nc(-n2ccc(C)n2)c1=O` [Compound 498, 5-chloro-6-[4-[3-(dimethylamino)propoxy]-2,6-difluorophenyl]-1-[(2S)-2-methylbutyl]-3-(3-methyl-1H-pyrazol-1-yl)-2(1H)-pyrazinone], the IC50 in series [1] (Homo sapiens) was 3.8 nM; in series [2] (Mus musculus, N1E-115), 14 nM. Further, the “RD Ratio (paclitaxel/compound)” value in series [1] is listed as 4.47. Also, in series [2], the “N1E115 Ratio (paclitaxel/compound)” value came out at 6.29.
Regarding `CC[C@H](C)Cn1c(-c2c(F)cc(OCCCN(C)C(C)=O)cc2F)c(Cl)nc(-n2cccn2)c1=O` [Compound 499], in series [1], the “RD Ratio (paclitaxel/compound)” value was determined as 1.70 and the IC50 is 10 nM. Further, in series [2], half-maximal inhibition (IC50) required 12 nM and the “N1E115 Ratio (paclitaxel/compound)” value is recorded as 7.33.
`CNCCCOc1cc(F)c(-c2c(Cl)nc(-n3cccn3)c(=O)n2CC(C)C)c(F)c1.Cl` [Compound 500]: in series [1], the “RD Ratio (paclitaxel/compound)” value is given as 8.50 and the IC50 is 2 nM. Also, in series [2], the IC50 was found to be 16 nM and the “N1E115 Ratio (paclitaxel/compound)” value came out at 5.50.
In the same order, the values of `CC[C@H](C)Cn1c(-c2c(F)cc(OC(C)=O)cc2F)c(Cl)nc(-n2cccn2)c1=O` [Compound 501] are 0.30, 57 nM, 62 nM and 1.42.
In the case of `CC[C@H](C)Cn1c(-c2c(F)cc(O)cc2F)c(Cl)nc(-n2cccn2)c1=O` [Compound 503], in series [1], the “RD Ratio (paclitaxel/compound)” value is 0.15 and inhibition was half-maximal at 114 nM (IC50). In addition, in series [2], the IC50 is 256 nM and the “N1E115 Ratio (paclitaxel/compound)” value is reported as 0.34.
Turning to `CC[C@H](C)Cn1c(-c2c(F)cc(OC)cc2F)c(Cl)nc(-n2ccc(C)n2)c1=O` [Compound 504], in series [1], the “RD Ratio (paclitaxel/compound)” value was 1.04 and the IC50 amounted to 16.3 nM. Also, in series [2], the 50% inhibitory concentration (IC50) worked out at 102 nM and the “N1E115 Ratio (paclitaxel/compound)” value is 0.86.
In the case of `CC(=O)O[C@H]1C(=O)[C@@]2(C)[C@H]([C@H](OC(=O)c3ccccc3)[C@]3(O)C[C@H](OC(=O)[C@H](O)[C@@H](NC(=O)c4ccccc4)c4ccccc4)C(C)=C1C3(C)C)[C@]1(OC(C)=O)CO[C@@H]1C[C@@H]2O` [paclitaxel, reference compound], the IC50 was 17 nM in series [1] (Homo sapiens) and 88 nM in series [2] (Mus musculus, N1E-115).
